Reference: patent US7713994B2 (Wyeth LLC, priority 2005, dated 2010)
Like-named read-outs stand apart in the source and are kept apart here.

What was measured:
cyclin B/CDK1 enzyme = molecular target: T1, cyclin B/CDK1 enzyme (Homo sapiens, UniProt P06493); test: CDK1 ELISA kinase assay (phospho-Rb ser 795 detection); format: biochemical
T1 construct: purchased New England BioLabs; host or cells: Sf9 insect cells, recombinant baculovirus
Method in brief: (§1)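 Wells were coated overnight with GST-Rb C-terminal fragment, then blocked. Compound (10 ug/ml final) and cyclin/CDK enzyme from baculovirus-infected Sf9 cells with 200 μM ATP reacted 1 h at 30° C. Ser795 phosphorylation was detected by ELISA at 450 nm.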

MCF-7 = test: Cytotoxicity assay (SRB), MCF-7; format: cell-based; settings: Homo sapiens, MCF7, 72 h, MCF-7 cells, SRB, read-out: In Vitro Cellular Activity IC50 MCF-7
Method in brief: (§2)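 Overnight-seeded monolayers (4000–12000 cells/well by line) receive compound in 5% FBS medium at 37 °C, 7% CO2. After 3 d, or 6 d for BT474, cellular protein is fixed with cold TCA, stained with SRB and read at 540 nm against untreated wells.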

cyclin D1/cdk 4 enzyme = molecular target: T2, cyclin D1/cdk 4 enzyme (Homo sapiens, UniProt P11802); test: CDK4 ELISA kinase assay (phospho-Rb ser 795 detection); format: biochemical
T2 construct: made in house; host or cells: Sf9 insect cells, recombinant baculovirus
Method in brief: as §1

LoVo = test: Cytotoxicity assay (SRB), LoVo; format: cell-based; settings: Homo sapiens, LoVo, 72 h, LoVo cells, SRB, read-out: In Vitro Cellular Activity IC50 LOVO
Method in brief: as §2

cyclin E/CDK2 enzyme = molecular target: T3, cyclin E/CDK2 enzyme (Homo sapiens, UniProt P24941); test: CDK2 ELISA kinase assay (phospho-Rb ser 795 detection); format: biochemical
T3 construct: made in house; host or cells: Sf9 insect cells, recombinant baculovirus
Method in brief: as §1

HCT-116 = test: Cytotoxicity assay (SRB), HCT-116; format: cell-based; settings: Homo sapiens, HCT-116, 72 h, HCT116 cells, SRB, read-out: In Vitro Cellular Activity IC50 HCT116
Method in brief: as §2

BT474 = test: Cytotoxicity assay (SRB), BT474; format: cell-based
Method in brief: as §2

[1] = In Vitro Enzyme Assays, read-out: CDK1 IC50
[2] = In Vitro Enzyme Assays, 200 μM ATP, read-out: CDK4 IC50
[3] = In Vitro Enzyme Assays, read-out: CDK2 IC50
[4] = Homo sapiens, BT-474, 144 h, BT474 cells, SRB, 6 days; read-out: In Vitro Cellular Activity IC50 BT474
[5] = In Vitro Enzyme Assay, cyclin B/CDK1, read-out: CDK1 IC50
[6] = In Vitro Enzyme Assay, cyclin D1/cdk 4, read-out: CDK4 IC50
[7] = In Vitro Enzyme Assay, cyclin E/CDK2, read-out: CDK2 IC50
[8] = Homo sapiens, BT-474, 144 h, BT474 cells, 6 days, SRB; read-out: In Vitro Cellular Activity IC50 BT474

T1 sequence (P06493 whole entry): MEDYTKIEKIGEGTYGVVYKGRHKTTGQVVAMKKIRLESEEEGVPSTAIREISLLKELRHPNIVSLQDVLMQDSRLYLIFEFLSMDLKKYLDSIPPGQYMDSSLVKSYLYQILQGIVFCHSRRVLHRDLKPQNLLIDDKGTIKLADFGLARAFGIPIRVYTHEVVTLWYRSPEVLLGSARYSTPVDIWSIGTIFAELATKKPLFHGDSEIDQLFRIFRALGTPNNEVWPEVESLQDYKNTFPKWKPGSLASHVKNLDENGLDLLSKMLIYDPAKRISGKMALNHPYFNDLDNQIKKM
T1 sequence (P14635 whole entry partner): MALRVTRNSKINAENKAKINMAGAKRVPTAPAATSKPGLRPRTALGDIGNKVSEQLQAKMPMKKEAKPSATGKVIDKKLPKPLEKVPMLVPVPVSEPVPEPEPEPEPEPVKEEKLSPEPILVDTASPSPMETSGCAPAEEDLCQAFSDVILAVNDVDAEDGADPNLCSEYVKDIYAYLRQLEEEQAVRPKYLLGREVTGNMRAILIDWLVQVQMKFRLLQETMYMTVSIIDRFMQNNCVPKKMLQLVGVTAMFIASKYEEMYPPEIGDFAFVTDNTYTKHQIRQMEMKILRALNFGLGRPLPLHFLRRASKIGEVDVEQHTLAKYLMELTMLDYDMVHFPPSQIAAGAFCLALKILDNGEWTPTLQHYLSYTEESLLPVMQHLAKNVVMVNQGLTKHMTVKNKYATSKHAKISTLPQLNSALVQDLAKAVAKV
T2 sequence (P11802 whole entry, species assumed): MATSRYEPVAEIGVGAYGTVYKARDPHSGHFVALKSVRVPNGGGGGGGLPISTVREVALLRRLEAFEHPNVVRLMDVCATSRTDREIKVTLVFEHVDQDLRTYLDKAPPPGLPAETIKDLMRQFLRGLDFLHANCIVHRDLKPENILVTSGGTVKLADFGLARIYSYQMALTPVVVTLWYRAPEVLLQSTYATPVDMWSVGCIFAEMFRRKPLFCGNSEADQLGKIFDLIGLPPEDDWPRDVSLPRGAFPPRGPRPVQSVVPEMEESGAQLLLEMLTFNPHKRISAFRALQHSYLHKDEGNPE
T2 sequence (P24385 whole entry partner, species assumed): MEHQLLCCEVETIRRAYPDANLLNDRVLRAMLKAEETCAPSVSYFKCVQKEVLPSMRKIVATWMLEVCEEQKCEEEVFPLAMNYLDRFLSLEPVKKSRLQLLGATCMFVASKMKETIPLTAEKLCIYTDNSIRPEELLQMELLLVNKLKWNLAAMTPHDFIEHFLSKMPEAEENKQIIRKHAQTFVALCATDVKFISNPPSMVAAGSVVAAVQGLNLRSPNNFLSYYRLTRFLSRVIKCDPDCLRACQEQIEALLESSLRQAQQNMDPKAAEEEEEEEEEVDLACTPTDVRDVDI

Row | Compound | IC50 (cyclin B/CDK1 enzyme; [1]) [µM] | IC50 (MCF-7; three days) [µM] | IC50 (cyclin D1/cdk 4 enzyme; [2]) [µM] | IC50 (LoVo; three days) [µM] | IC50 (cyclin E/CDK2 enzyme; [3]) [µM] | IC50 (HCT-116; three days) [µM] | IC50 (BT474; [4]) [µM] | IC50 (cyclin B/CDK1 enzyme; [5]) [µM] | IC50 (MCF-7; 3 days) [µM] | IC50 (cyclin D1/cdk 4 enzyme; [6]) [µM] | IC50 (LoVo; 3 days) [µM] | IC50 (cyclin E/CDK2 enzyme; [7]) [µM] | IC50 (HCT-116; 3 days) [µM] | IC50 (BT474; [8]) [µM]
1 | CONCCCc1ccc(N/C=C2\C(=O)NC(=O)c3ccc(Br)cc32)cc1 [Example 274, (4Z)-6-Bromo-4-[({4-[3-(methoxyamino)propyl]phenyl}amino)methylene]isoquinoline-1,3(2H,4H)-dione] | 15.1 | 10.3 | 1.9 | 12.5 | 2.8 | 9.5 | 12 | – | – | – | – | – | – | –
2 | COc1ccc(CN/C=C2\C(=O)NC(=O)c3ccc(-c4ccc(F)cc4)cc32)cc1O [Example 208, (4Z)-6-(4-Fluorophenyl)-4-{[(3-hydroxy-4-methoxybenzyl)amino]methylene}iso-quinoline-1,3(2H,4H)-dione] | > 50 | 3.4 | 0.009 | 15 | 30.3 | 5.7 | 8.2 | – | – | – | – | – | – | –
3 | O=C1NC(=O)c2ccc(C=Cc3ccccn3)cc2C1=CNCc1ccc(O)c(O)c1 [Example 662, 4-[(3,4-Dihydroxy-benzylamino)-methylene]-6-(2-pyridin-2-yl-vinyl)-4H-isoquinoline-1,3-dione] | – | – | – | – | – | – | – | > 50 | 30.6 | 0.17 | > 50 | > 50 | > 50 | 35.8
4 | Cn1ccc(CN/C=C2\C(=O)NC(=O)c3ccc(I)cc32)cc1=O [Example 453, (4Z)-6-Iodo-4-({[(1-methyl-2-oxo-1,2-dihydropyridin-4-yl)methyl]amino}methylene)isoquinoline-1,3(2H,4H)-dione] | 12.6 | – | 0.06 | – | 1 | – | – | – | 4.3 | – | 3.3 | – | 3.7 | 4
5 | CN(C)CCCc1ccc(N/C=C2\C(=O)NC(=O)c3ccc(Br)cc32)cc1 [Example 270, (4Z)-6-Bromo-4-[({4-[3-(dimethylamino)propyl]phenyl}amino)methylene]isoquinoline-1,3(2H,4H)-dione] | > 50 | 7.2 | 3 | 24 | 38.8 | 13 | 27 | – | – | – | – | – | – | –
6 | CC1CN(C)[C@H](C)CN1c1ccc(N/C=C2\C(=O)NC(=O)c3ccc(I)cc32)cc1 (stereo in doubt) [Example 233, (4Z)-6-Iodo-4-[({4-[(2S,5R)-2,4,5-trimethylpiperazin-1-yl]phenyl}amino)methylene]-isoquinoline-1,3(2H,4H)-dione] | > 50 | 1 | 3 | 4.4 | > 50 | 5 | 6.9 | – | – | – | – | – | – | –
7 | CN1CCN(c2ccc(N/C=C3\C(=O)NC(=O)c4ccc(-c5ccsc5)cc43)cn2)CC1 [Example 396, (4Z)-4-({[6-(4-Methylpiperazin-1-yl)pyridin-3-yl]amino}methylene)-6-thien-3-ylisoquinoline-1,3(2H,4H)-dione] | > 50 | – | 0.02 | – | > 50 | – | – | – | 3.8 | – | 3.1 | – | 1.4 | 2.8
8 | CN1CCN(c2ccc(N/C=C3\C(=O)NC(=O)c4ccc(-c5cccc(F)c5)cc43)cc2)CC1 [Example 154, 6-(3-Fluoro-phenyl)-4-{[4-(4-methyl-piperazin-1-yl)-phenylamino]-methylene}-4H-isoquinoline-1,3-dione] | > 50 | 2.7 | 3.3 | 3.2 | > 50 | 2.2 | 3 | – | – | – | – | – | – | –
9 | N#Cc1ccc(-c2ccc3c(c2)C(=CNc2ccc(CN4CCCC4)cc2)C(=O)NC3=O)cc1 [Example 839, 4-{1,3-Dioxo-4-[(4-pyrrolidin-1-ylmethyl-phenylamino)-methylene]-1,2,3,4-tetrahydro-isoquinolin-6-yl}-benzonitrile] | – | – | – | – | – | – | – | > 50 | 21.6 | 3.3 | > 50 | 38.8 | 14.1 | 27.2
10 | O=C1NC(=O)c2ccc(Br)cc2/C1=C/Nc1ccc(CN2CCC[C@H]2CO)cc1 (stereo in doubt) [Example 437, 6-Bromo-4-{[4-(2-hydroxymethyl-pyrrolidin-1-ylmethyl)-phenylamino]-methylene}-4H-isoquinoline-1,3-dione] | > 50 | – | 0.75 | – | 36.3 | – | – | – | 3.1 | – | 3.6 | – | 3.7 | 2.9
11 | CN1CCN(c2ccc(NC=C3C(=O)NC(=O)c4ccc(C=Cc5ccc(S(N)(=O)=O)cc5)cc43)cc2)CC1 [Example 728, 4-[2-(4-{[4-(4-Methyl-piperazin-1-yl)-phenylamino]-methylene}-1,3-dioxo-1,2,3,4-tetrahydro-isoquinolin-6-yl)-vinyl]-benzenesulfonamide] | – | – | – | – | – | – | – | 1 | > 50 | 0.07 | > 50 | 1.3 | 29.1 | > 50
12 | O=C1NC(=O)c2ccc(I)cc2/C1=C/NCc1ccc(-c2ccccc2)c(O)c1 [Example 490, 4-{[(2-Hydroxy-biphenyl-4-ylmethyl)-amino]-methylene}-6-iodo-4H-isoquinoline-1,3-dione] | – | – | – | – | – | – | – | 47.8 | 0.88 | 0.13 | 0.34 | 15.1 | 0.42 | 0.26
13 | COc1ccc(-c2ccc3c(c2)C(=CNCc2ccc(O)c(O)c2)C(=O)NC3=O)cc1OC [Example 813, 4-[(3,4-Dihydroxy-benzylamino)-methylene]-6-(3,4-dimethoxy-phenyl)-4H-isoquinoline-1,3-dione] | – | – | – | – | – | – | – | > 50 | 29.7 | 0.31 | 12.7 | 33.1 | 19.8 | 35.8
14 | O=C1NC(=O)c2ccc(-c3ccco3)cc2/C1=C/Nc1ccc(CN2CCC[C@H]2CO)cc1 [Example 466, 6-Furan-2-yl-4-{[4-(2-hydroxymethyl-pyrrolidin-1-ylmethyl)-phenylamino]-methylene}-4H-isoquinoline-1,3-dione] | – | – | – | – | – | – | – | > 50 | 1.2 | 0.13 | 2.1 | > 50 | 2.1 | 1.4
15 | CN(C)C(=O)C1CCN(c2ccc(N/C=C3\C(=O)NC(=O)c4ccc(I)cc43)cc2)CC1 [Example 429, 1-(4-{[(Z)-(6-Iodo-1,3-dioxo-2,3-dihydroisoquinolin-4(1H)-ylidene)methyl]amino}phenyl)-N,N-dimethylpiperidine-4-carboxamide] | > 50 | – | 3 | – | > 50 | – | – | – | > 50 | – | 21.1 | – | 21 | 11.7
16 | C=CC(=O)Nc1ccc(CN/C=C2\C(=O)NC(=O)c3ccc(Br)cc32)cc1O [Example 301, N-[4-({[(Z)-(6-Bromo-1,3-dioxo-2,3-dihydroisoquinolin-4(1H)-ylidene)methyl]amino}methyl)-2-hydroxyphenyl]acrylamide] | > 50 | 0.2 | 0.09 | 0.17 | 8.4 | 0.17 | 0.14 | – | – | – | – | – | – | –
17 | CN1CCN(C2CCC(NC=C3C(=O)NC(=O)c4ccc(I)cc43)CC2)CC1 (stereo not drawn) [Example 360, 6-Iodo-4-{[4-(4-methyl-piperazin-1-yl)-cyclohexylamino]-methylene}-4H-isoquinoline-1,3-dione] | > 50 | 8.9 | 0.46 | 9.6 | > 50 | 9.6 | 16 | – | – | – | – | – | – | –
18 | CN1CCN(c2ccc(NC=C3C(=O)NC(=O)c4ccc(-c5ccc(C=CC(=O)O)cc5)cc43)cc2)CC1 [Example 698, 3-[4-(4-{[4-(4-Methyl-piperazin-1-yl)-phenylamino]-methylene}-1,3-dioxo-1,2,3,4-tetrahydro-isoquinolin-6-yl)-phenyl]-acrylic acid] | – | – | – | – | – | – | – | > 50 | > 50 | 0.28 | > 50 | > 50 | 46.3 | 48.1
